According to ChEMBL document CHEMBL1201862, “PubChem BioAssay data set” (2004):
The source made the active and inactive calls.

Tests used:
[1] = biological target: T1, Protein RecA (Mycobacterium tuberculosis, UniProt P9WHJ3); assay: Fluorescence Cell-Free Homogeneous Dose Retest to Identify Inhibitors of RecA-Intein Splicing Activity. [Related pubchem assays (depositor defined):AID2097, AID2223, AID489010, AID492950]; assay type: functional
T1 sequence (P9WHJ3 whole entry): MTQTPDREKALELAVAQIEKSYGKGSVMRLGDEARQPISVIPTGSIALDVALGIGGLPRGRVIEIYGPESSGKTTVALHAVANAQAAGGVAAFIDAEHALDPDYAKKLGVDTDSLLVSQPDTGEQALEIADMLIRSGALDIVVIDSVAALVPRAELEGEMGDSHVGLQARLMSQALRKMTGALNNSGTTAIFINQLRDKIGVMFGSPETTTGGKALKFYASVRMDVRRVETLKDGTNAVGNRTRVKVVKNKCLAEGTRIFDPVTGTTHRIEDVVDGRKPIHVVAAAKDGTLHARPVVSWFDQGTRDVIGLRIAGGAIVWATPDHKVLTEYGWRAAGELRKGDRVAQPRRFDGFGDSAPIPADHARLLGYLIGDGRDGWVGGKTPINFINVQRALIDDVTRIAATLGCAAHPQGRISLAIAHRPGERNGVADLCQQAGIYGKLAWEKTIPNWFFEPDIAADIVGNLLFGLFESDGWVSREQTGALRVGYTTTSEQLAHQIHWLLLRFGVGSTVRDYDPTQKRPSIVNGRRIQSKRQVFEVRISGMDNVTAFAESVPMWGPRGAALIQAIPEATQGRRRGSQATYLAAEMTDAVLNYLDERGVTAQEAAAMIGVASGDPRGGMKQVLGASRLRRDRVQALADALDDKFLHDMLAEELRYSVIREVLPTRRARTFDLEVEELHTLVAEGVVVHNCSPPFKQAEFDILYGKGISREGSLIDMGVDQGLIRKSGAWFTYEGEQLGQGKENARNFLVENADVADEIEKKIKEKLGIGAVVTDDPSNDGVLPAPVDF

[2] = biological target: Exodeoxyribonuclease V (Escherichia coli (strain K12), UniProt P04993+P07648+P08394); assay: E. coli RecBCD inhibitors, dose response, counter-screen for AddAB inhibitor project, absorbance, V66 E. coli, mutant T4 phage (AID 492957); assay type: functional, cell-based, Escherichia coli str. K-12 substr. MG1655
[3] = test system: INS1; assay: beta cell apoptosis inhibitors, cytokine rescue, dose response, luminescence, retest (AID 449756); assay type: functional, cell-based; conditions: Rattus norvegicus;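 further: cell death triggered by IL-1 beta plus TNF-alpha plus IFN-gamma mixture; protective hits raise ATP signal compared with cytokine alone wells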
[4] = biological target: Hepatocyte growth factor receptor (Homo sapiens, UniProt P08581); assay type: functional;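 further: kinase panel profiling across the kinome, with MET as the panel member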
[5] = biological target: Serine/threonine-protein kinase pim-1 (Homo sapiens, UniProt P11309); assay type: functional
[6] = biological target: Cyclin-dependent kinase 5 (Homo sapiens, UniProt Q00535); assay type: functional;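 further: CDK5 measured as one member of a kinase profiling panel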
[7] = biological target: Aurora kinase A (Homo sapiens, UniProt O14965); assay type: functional;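 further: value from the Navigating the Kinome kinase panel profiling, panel entry STK6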
[8] = biological target: High affinity nerve growth factor receptor (Homo sapiens, UniProt P04629); assay type: functional;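 further: NTRK1 tested as one member of a kinome-wide profiling panel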
[9] = biological target: Casein kinase I isoform alpha (Homo sapiens, UniProt P48729); assay type: functional
[10] = biological target: Leukocyte tyrosine kinase receptor (Homo sapiens, UniProt P29376); assay: Navigating the Kinome. Panel member name: LTK; assay type: functional
[11] = biological target: Inhibitor of nuclear factor kappa-B kinase subunit epsilon (Homo sapiens, UniProt Q14164); assay: Navigating the Kinome. Panel member name: IKBKE; assay type: functional
[12] = biological target: Activated CDC42 kinase 1 (Homo sapiens, UniProt Q07912); assay: Navigating the Kinome. Panel member name: ACK1; assay type: functional
[13] = biological target: Calcium/calmodulin-dependent protein kinase type II subunit alpha (Homo sapiens, UniProt Q9UQM7); assay: Navigating the Kinome. Panel member name: CAMK2A; assay type: functional
[14] = biological target: Vascular endothelial growth factor receptor 1 (Homo sapiens, UniProt P17948); assay type: functional;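 further: measured within a kinome-wide profiling panel, FLT1 as the panel member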
[15] = biological target: cAMP-dependent protein kinase catalytic subunit PRKX (Homo sapiens, UniProt P51817); assay type: functional
[16] = biological target: BDNF/NT-3 growth factors receptor (Homo sapiens, UniProt Q16620); assay type: functional;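 further: NTRK2 measured as one member of a broad kinome-wide kinase profiling panel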
[17] = biological target: Dual specificity tyrosine-phosphorylation-regulated kinase 1B (Homo sapiens, UniProt Q9Y463); assay: Navigating the Kinome. Panel member name: DYRK1B; assay type: functional
[18] = biological target: Tyrosine-protein kinase JAK3 (Homo sapiens, UniProt P52333); assay type: functional
[19] = cells
[20] = biological target: T2, Sentrin-specific protease 7 (Homo sapiens, UniProt Q9BQF6); assay type: functional;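 further: Luminescence-based dose-response confirmation of ultra-high-throughput screening hits, measuring inhibition of SENP7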
T2 sequence (Q9BQF6 whole entry): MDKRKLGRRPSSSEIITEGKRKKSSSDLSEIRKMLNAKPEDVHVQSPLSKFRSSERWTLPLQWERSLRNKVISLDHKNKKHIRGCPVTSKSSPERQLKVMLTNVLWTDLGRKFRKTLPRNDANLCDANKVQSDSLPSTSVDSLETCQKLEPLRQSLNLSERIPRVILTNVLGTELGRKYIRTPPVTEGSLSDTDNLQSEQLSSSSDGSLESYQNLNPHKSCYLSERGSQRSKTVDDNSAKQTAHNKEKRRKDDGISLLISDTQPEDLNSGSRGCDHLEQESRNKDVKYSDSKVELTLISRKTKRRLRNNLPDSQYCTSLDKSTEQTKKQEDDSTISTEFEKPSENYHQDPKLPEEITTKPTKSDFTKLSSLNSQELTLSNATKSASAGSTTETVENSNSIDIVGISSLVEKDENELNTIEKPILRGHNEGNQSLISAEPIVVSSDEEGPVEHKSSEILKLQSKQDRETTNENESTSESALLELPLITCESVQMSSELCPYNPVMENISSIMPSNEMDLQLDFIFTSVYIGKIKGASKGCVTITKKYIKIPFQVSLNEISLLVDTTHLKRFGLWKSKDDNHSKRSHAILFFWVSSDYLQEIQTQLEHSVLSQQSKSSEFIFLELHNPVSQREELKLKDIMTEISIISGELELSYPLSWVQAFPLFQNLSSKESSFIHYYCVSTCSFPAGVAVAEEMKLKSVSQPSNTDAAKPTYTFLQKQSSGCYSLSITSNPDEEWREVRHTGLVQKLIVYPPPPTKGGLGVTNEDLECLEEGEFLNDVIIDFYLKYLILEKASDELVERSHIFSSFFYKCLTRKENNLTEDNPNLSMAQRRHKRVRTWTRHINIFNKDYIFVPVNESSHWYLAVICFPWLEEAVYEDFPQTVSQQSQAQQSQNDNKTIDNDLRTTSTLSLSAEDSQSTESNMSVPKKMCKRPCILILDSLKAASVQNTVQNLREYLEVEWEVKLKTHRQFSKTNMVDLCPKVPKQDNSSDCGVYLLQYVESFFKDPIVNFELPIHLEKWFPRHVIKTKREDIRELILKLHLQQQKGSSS

Chain of Casein kinase I isoform alpha (P48729 whole entry, canonical isoform): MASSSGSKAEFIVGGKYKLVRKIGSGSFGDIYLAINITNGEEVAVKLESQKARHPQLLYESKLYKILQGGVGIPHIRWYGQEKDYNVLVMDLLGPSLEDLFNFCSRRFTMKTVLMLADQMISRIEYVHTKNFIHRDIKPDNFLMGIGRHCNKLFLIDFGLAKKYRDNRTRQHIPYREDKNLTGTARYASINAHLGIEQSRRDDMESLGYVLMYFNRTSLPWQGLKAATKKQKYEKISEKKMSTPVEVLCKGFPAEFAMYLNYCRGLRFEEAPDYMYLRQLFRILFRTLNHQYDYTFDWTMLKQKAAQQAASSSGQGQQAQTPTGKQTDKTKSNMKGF
Chain of High affinity nerve growth factor receptor (P04629 whole entry, canonical isoform): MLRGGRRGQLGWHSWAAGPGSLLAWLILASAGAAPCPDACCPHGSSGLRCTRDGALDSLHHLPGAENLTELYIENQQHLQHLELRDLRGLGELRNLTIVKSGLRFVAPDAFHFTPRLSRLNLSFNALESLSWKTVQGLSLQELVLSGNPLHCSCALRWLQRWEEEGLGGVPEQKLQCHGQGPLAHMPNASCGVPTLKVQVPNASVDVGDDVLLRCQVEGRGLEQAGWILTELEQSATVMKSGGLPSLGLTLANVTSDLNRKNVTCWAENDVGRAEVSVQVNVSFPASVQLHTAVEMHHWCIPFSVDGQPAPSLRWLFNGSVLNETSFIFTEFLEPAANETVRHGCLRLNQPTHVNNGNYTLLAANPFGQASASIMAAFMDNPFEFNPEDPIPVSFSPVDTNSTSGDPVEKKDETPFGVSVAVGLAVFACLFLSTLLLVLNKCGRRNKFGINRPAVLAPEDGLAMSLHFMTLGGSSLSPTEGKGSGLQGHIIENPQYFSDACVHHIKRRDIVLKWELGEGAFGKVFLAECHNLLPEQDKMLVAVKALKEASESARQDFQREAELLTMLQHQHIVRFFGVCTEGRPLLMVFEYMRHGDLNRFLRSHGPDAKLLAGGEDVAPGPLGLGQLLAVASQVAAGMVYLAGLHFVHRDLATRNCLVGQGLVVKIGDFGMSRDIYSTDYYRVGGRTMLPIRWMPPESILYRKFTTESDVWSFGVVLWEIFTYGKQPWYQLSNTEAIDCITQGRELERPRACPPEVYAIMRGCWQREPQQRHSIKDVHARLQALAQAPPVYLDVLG
Chain of Aurora kinase A (O14965 whole entry): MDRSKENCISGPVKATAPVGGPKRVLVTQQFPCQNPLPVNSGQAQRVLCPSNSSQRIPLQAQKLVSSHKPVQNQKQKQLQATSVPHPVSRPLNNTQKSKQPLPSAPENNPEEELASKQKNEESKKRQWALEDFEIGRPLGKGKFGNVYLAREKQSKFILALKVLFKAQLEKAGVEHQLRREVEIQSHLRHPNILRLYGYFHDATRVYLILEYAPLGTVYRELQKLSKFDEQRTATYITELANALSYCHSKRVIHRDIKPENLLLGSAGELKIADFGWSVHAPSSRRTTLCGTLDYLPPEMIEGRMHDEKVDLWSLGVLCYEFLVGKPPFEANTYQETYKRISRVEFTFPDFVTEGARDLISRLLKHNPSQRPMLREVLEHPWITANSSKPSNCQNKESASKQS
Chain of Exodeoxyribonuclease V (P04993 whole entry): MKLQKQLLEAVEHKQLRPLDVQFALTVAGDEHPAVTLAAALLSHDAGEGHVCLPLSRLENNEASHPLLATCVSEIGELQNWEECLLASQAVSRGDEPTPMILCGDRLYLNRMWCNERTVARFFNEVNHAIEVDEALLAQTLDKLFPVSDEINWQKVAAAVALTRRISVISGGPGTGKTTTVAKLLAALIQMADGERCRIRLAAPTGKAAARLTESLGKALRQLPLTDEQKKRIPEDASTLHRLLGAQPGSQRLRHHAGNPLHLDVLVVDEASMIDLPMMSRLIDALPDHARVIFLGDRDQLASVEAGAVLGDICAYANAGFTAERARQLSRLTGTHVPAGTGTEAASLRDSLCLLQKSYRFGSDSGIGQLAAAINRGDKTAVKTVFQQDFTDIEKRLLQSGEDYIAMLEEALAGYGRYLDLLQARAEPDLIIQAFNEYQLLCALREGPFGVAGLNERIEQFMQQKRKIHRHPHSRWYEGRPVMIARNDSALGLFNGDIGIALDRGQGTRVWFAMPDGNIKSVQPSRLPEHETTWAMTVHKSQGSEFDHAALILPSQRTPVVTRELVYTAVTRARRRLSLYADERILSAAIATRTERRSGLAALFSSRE
Chain of Exodeoxyribonuclease V (P07648 whole entry): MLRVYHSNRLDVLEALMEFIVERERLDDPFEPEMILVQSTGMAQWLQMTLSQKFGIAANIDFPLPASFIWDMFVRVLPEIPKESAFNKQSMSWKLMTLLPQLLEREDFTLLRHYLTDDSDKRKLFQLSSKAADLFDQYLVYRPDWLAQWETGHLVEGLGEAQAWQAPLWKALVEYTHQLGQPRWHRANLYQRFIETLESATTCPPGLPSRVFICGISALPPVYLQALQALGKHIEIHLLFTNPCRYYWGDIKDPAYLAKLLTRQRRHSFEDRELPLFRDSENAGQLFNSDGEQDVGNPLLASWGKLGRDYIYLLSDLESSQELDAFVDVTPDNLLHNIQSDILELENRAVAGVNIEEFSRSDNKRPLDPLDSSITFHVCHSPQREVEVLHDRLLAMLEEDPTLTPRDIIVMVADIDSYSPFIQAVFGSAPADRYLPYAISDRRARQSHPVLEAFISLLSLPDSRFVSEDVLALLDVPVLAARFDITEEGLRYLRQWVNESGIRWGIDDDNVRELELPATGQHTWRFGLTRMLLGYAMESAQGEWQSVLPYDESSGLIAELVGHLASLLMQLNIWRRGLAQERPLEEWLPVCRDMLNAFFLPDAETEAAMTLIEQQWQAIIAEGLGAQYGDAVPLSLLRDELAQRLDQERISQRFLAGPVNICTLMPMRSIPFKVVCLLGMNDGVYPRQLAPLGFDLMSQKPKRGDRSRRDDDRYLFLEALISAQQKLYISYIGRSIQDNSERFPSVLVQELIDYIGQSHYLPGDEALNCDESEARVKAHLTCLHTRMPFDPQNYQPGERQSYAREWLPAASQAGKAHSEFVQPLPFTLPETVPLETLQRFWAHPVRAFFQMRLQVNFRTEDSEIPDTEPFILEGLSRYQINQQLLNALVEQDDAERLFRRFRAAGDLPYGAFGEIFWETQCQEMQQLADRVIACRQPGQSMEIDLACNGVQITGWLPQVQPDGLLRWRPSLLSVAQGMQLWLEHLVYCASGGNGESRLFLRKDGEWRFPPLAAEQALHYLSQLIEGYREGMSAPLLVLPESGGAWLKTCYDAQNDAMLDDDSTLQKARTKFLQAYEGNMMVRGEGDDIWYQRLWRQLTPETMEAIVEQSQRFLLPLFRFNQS
Chain of Exodeoxyribonuclease V (P08394 whole entry): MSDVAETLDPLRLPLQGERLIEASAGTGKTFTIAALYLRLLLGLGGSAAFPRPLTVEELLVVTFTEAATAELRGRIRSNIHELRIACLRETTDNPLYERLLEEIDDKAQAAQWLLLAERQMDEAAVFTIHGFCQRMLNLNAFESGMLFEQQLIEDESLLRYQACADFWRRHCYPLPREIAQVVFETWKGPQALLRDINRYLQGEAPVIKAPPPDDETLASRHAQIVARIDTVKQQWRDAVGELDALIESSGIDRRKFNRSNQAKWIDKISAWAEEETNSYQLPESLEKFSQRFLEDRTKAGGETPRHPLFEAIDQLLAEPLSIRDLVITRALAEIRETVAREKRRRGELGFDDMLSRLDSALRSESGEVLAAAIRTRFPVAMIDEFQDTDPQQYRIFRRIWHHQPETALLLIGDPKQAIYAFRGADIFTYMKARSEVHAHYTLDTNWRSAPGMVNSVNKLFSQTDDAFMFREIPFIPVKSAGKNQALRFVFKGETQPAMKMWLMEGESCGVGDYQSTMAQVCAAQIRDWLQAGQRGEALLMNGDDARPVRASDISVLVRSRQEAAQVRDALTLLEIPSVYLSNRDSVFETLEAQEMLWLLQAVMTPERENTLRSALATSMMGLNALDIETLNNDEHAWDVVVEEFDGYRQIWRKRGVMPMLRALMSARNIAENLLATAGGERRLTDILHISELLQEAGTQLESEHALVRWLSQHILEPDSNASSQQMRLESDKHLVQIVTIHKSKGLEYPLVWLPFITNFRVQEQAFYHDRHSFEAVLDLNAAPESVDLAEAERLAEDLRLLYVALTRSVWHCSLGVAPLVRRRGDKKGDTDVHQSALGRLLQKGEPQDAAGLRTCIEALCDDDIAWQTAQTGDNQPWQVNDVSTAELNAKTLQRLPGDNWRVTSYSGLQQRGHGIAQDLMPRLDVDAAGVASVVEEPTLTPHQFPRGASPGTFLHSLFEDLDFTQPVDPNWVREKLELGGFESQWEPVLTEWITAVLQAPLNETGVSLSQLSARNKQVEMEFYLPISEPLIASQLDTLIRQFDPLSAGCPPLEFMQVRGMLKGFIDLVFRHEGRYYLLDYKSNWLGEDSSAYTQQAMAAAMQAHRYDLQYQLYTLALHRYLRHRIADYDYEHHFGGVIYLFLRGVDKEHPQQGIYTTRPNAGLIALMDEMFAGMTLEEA
Chain of cAMP-dependent protein kinase catalytic subunit PRKX (P51817 whole entry): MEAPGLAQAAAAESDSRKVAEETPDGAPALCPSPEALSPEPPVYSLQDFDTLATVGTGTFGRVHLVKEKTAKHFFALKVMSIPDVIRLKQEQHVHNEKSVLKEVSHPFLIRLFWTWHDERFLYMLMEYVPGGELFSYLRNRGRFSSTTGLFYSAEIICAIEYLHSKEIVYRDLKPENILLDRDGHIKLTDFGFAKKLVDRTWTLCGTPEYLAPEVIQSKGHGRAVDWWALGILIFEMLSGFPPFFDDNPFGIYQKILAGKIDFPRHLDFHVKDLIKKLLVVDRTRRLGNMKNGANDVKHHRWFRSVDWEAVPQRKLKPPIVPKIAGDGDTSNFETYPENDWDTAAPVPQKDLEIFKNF

SMILES: CN1CCN(C(c2ccc(C(F)(F)F)cc2)c2cc(Cl)c3cccnc3c2O)CC1 (stereo not given)
- EC50 [1]: 0.932 µM (active)
- IC50 [2]: > 119 µM (inactive)
- AC50 [3]: 3.18 µM (active)

SMILES: O=C(NC(CCO)c1ccccc1)c1ccc(-c2ccncc2)cc1 (stereo not given)
- Ki [4]: > 2.51 µM (inactive)
- Ki [5]: > 6.31 µM (inactive)
- Ki [6]: > 3.16 µM (inactive)
- Ki [7]: > 1.58 µM (inactive)
- Ki [8]: > 3.16 µM (inactive)
- Ki [9]: > 3.98 µM (inactive)
- Ki [10]: > 2.51 µM (inactive)
- Ki [11]: > 3.16 µM (inactive)
- Ki [12]: > 3.98 µM (inactive)
- Ki [13]: > 7.94 µM (inactive)
- Ki [14]: > 3.98 µM (inactive)
- Ki [15]: 0.316 µM (active)
- Ki [16]: > 3.98 µM (inactive)
- Ki [17]: > 2.51 µM (inactive)
- Ki [18]: > 5.01 µM (inactive)

SMILES: NC(=O)c1c(NC(=O)c2cc3ccccc3o2)sc2c1CCC2
- EC50 [19]: > 67.5 µM (inactive)
- IC50 [20]: 3.74 µM (active)
